Experimental data published in ChEMBL document CHEMBL1157542, “Design and synthesis of potent and selective BACE-1 inhibitors” (J Med Chem, 2010).

What was measured:
Beta-secretase 1 = Beta-secretase 1 (Homo sapiens, UniProt P56817); test: biochemical
Description: Inhibition of human BACE1 expressed in Escherichia coli cells (BL21(DE3) by TRF assay

Cathepsin D = Cathepsin D (Homo sapiens, UniProt P07339)
Chain of Cathepsin D (P07339 65-162 limits assumed): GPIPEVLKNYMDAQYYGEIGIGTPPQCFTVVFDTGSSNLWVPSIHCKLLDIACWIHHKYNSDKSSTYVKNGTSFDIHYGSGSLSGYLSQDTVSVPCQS
Chain of Cathepsin D (P07339 169-412 limits assumed): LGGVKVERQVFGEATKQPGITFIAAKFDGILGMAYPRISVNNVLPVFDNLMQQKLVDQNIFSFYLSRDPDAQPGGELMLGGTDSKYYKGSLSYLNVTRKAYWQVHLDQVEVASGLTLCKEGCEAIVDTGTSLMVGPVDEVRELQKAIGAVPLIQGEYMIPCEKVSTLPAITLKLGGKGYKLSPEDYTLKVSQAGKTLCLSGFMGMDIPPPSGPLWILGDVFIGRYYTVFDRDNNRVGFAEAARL
Description: Inhibition of human liver cathepsin D

Chain of Beta-secretase 1 (P56817 whole entry): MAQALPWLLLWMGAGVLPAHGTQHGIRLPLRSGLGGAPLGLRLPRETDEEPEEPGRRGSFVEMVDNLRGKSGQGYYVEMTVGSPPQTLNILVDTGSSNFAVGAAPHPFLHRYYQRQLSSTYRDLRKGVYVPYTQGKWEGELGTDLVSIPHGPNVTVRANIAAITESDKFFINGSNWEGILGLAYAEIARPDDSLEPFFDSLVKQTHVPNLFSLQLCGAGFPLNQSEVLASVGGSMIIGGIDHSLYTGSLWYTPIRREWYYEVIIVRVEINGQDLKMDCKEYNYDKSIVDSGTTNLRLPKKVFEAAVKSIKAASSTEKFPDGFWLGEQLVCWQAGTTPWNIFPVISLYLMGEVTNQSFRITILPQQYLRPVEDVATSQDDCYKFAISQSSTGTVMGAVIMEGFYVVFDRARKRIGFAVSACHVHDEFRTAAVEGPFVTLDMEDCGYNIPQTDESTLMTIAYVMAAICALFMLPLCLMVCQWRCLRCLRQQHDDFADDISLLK

Compound | Ki (Beta-secretase 1) [nM] | Ki (Cathepsin D) [nM]
CCCN(CCC)C(=O)c1cccc(C(=O)N[C@@H](COc2cc(F)cc(F)c2)[C@@H](O)C[C@@H](OC)C(=O)NC2CC2)c1 | 220 | –
CO[C@H](C[C@H](O)[C@H](COc1cc(F)cc(F)c1)NC(=O)c1cc(C(=O)N[C@H](C)c2ccccc2)cc(N(C)CS(C)(=O)=O)c1)C(=O)NCC(C)C | 400 | > 5000
CO[C@H](C[C@H](O)[C@H](COc1ccccc1)NC(=O)c1cc(C(=O)N[C@H](C)c2ccccc2)cc(N(C)CS(C)(=O)=O)c1)C(=O)N[C@H](C(=O)NCc1ccccc1)C(C)C | 9 | 460
CO[C@H](C[C@H](O)[C@H](COc1ccc(Br)cc1)NC(=O)c1cc(C(=O)N[C@H](C)c2ccccc2)cc(N(C)CS(C)(=O)=O)c1)C(=O)N[C@H](C(=O)NCc1ccccc1)C(C)C | 75 | 840
CO[C@H](C[C@H](O)[C@H](COc1cc(F)cc(F)c1)NC(=O)c1cc(C(=O)N[C@H](C)c2ccccc2)cc(N(C)CS(C)(=O)=O)c1)C(=O)NC1CC1 | 1800 | > 5000
CO[C@H](C[C@H](O)[C@H](COc1cc(F)cc(F)c1)NC(=O)c1cc(C(=O)N[C@H](C)c2ccccc2)cc(N(C)CS(C)(=O)=O)c1)C(=O)N[C@H](C(=O)NCc1ccccc1)C(C)C | < 1 | 1100

Other lines, results leading:

Ki (Beta-secretase 1) [nM] | Ki (Cathepsin D) [nM] | Compound
> 10000 | – | CCCN(CCC)C(=O)c1cccc(C(=O)N[C@@H](COCc2cc(F)cc(F)c2)[C@@H](O)C[C@@H](OC)C(=O)NC2CC2)c1
60 | – | CO[C@H](C[C@H](O)[C@H](COCc1ccc(Br)cc1)NC(=O)c1cc(C(=O)N[C@H](C)c2ccccc2)cc(N(C)CS(C)(=O)=O)c1)C(=O)N[C@H](C(=O)NCc1ccccc1)C(C)C
1400 | > 5000 | CO[C@H](C[C@H](O)[C@H](COc1cc(F)cc(F)c1)NC(=O)c1cc(C(=O)N[C@H](C)c2ccccc2)cc(N(C)CS(C)(=O)=O)c1)C(=O)NCc1ccccc1
100 | > 5000 | CO[C@H](C[C@H](O)[C@H](COc1cc(F)cc(F)c1)NC(=O)c1cc(C(=O)N[C@H](C)c2ccccc2)cc(N(C)CS(C)(=O)=O)c1)C(=O)Nc1ccc(F)cc1
80 | – | CO[C@H](C[C@H](O)[C@H](COCc1cc(F)cc(F)c1)NC(=O)c1cc(C(=O)N[C@H](C)c2ccccc2)cc(N(C)CS(C)(=O)=O)c1)C(=O)N[C@H](C(=O)NCc1ccccc1)C(C)C
200 | > 5000 | CO[C@H](C[C@H](O)[C@H](COc1cc(F)cc(F)c1)NC(=O)c1cc(C(=O)N[C@H](C)c2ccccc2)cc(N(C)CS(C)(=O)=O)c1)C(=O)Nc1ccccc1
